Drawing on publication PMC11558545, “Mechanistic Insights into the Function of 14-3-3 Proteins as Negative Regulators of Brassinosteroid Signaling in Arabidopsis” (Plant and Cell Physiology, 2024), this text covers Kd, kon and koff for 2 compounds.

The structures appear in SMILES notation. Square brackets hold non-standard residues; d marks the D form. Peptide text beside a SMILES is read from it. pS = N[C@@H](COP(=O)(O)O)C(=O)O

Usually Kd stands for the free concentration of one partner at which half of the binding sites on the other are occupied at equilibrium, for simple one-to-one binding.

For assay [1], the target named is T1, 14-3-3 ω (biotinylated dimer on streptavidin chip) (Arabidopsis thaliana, UniProt Q01525).
T1 construct: Full-length At14-3-3-κ^1−248 (Uniprot-ID P48348, http://uniprot.org), At14-3-3-λ^1−248 (P48349), At14-3-3-ω^1−259 (Q01525); thioredoxin A (trxA) fusion (N, cleaved yes); 8xHis (N, cleaved yes); StrepII (N, cleaved yes); biotin (chemical, EZ-Link NHS-Biotin on amines); made in house; host or cells: E. coli BL21 (DE3) RIL
T1 sequence (Q01525 1-259): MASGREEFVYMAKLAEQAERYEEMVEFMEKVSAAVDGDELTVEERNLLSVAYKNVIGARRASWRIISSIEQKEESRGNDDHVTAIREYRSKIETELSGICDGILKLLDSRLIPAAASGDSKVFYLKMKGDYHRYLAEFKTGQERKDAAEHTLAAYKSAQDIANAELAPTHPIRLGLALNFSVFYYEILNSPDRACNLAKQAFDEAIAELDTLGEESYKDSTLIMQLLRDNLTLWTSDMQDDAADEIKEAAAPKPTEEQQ
Put plainly: Grating coupled interferometry (GCI) binding kinetics versus 14-3-3 ω. The conditions noted are these: 25°C, 1-to-1 (2:2) binding model. The protocol: The binding kinetics of 14-3-3 ω versus the BZR1^169−175 and pBZR1^169−175 peptides (Table 1) were assessed on a Creoptix® WAVE system using a streptavidin-coated 4PCH WAVEchip® (long polycarboxylate matrix; Creoptix AG, Switzerland). Chips were first conditioned with 100 mM sodium borate pH 9.0, 1 m NaCl. Next, after the activation of the chip surface with a 1:1 mix of 400 mM N-(3-dimethylaminopropyl)-N’-ethylcarbodiimide hydrochloride and 100 mM N-[…] hydroxysuccinimide (Xantec, Germany), streptavidin was immobilized on the chip surface through the injection of 50 µg/ml streptavidin (ThermoFisher Scientific 43–4301) in 10 mM sodium acetate pH 5.0 until high density (∼10,000 pg/mm^2) was reached. Biotinylation of 14-3-3 ω for capturing onto streptavidin chip was performed by mixing equimolar amounts of protein and biotin (EZ-Link™ NHS-Biotin ThermoFisher Scientific). A total of 170 µM of 14-3-3 ω were incubated on ice with 170 µM of biotin (previously dissolved in water to 20 mM) for 1.5 min. The biotinylation was performed in 100 mM Hepes pH 8 and 150 mM NaCl. The biotinylated 14-3-3 ω dimer was purified by size exclusion chromatography in 20 mM Hepes pH 7.5 and 150 mM NaCl on a Superdex 10/300 increase column (Cytiva Life Sciences) to verify the homogeneity and to remove excess biotin. Gel-filtrated biotinylated 14-3-3 ω (0.45 mg/ml) was directly immobilized on the streptavidin-coated chip until a density of about 500 pg/ mm^2 was reached. The synthetic BRZ1^169−175 and pBZR1^169−175 peptides were dissolved in 20 mM Hepes and 150 mM NaCl buffer to a final concentration of 10 mM. Kinetic analysis of 14-3-3 ω and BZR1^169−175/pBZR1^169−175 interactions was performed at 25°C by flushing a dilution series of the analyte pBZR1 with a 2 dilution factor starting from 10 µM. Data analysis and data fitting were done using the Creoptix WAVEcontrol® software.

Assay [2] has as its target T2, Arabidopsis 14-3-3 isoform kappa (14-3-3κ) (Arabidopsis thaliana, UniProt P48348).
T2 construct: Full-length At14-3-3-κ^1−248 (Uniprot-ID P48348, http://uniprot.org); thioredoxin A (trxA) fusion (N, cleaved yes); 8xHis (N, cleaved yes); StrepII (N, cleaved yes); made in house; host or cells: E. coli BL21 (DE3) RIL
In words: biochemical. It counts as binding. From the text:
Full-length At14-3-3-κ^1−248 (Uniprot-ID P48348, http://uniprot.org), At14-3-3-λ^1−248 (P48349), At14-3-3-ω^1−259 (Q01525) or C-terminal truncated At14-3-3-κ^1−240, At14-3-3-λ^1−240 or At14-3-3-ω^1−237 isoforms and BIN2^7−380 from Arabidopsis were cloned from synthetic genes codon-optimized for expression in E. coli (Geneart, Thermofisher, Tauberbischofsheim, Germany) into vector pMH-HStrxT providing an N-terminal thioredoxin A (trxA) fusion protein containing 8xHis and StrepII affinity tags, and a tobacco etch virus protease (TEV) recognition site. Protein expression in E. coli BL21 (DE3) RIL grown to OD600nm= 0.6 was induced with 0.2 mM ispropyl β-D-galactoside in terrific broth at 16°C for 16 h. Cells were collected by centrifugation at 4500 × g for 30 min, washed in PBS buffer, centrifuged again at 4500 × g for 15 min and snap-frozen in liquid N2. For protein purification cells were resuspended in buffer A (20 mM Tris–HCl pH 8.0, 500 mM NaCl), and lysed by sonication (Branson DS450). The lysate was cleared by centrifugation at 7000 × g for 60 min and filtrated using a 0.45 µm molecular weight cutoff filter (Pall Corporation, Port Washington, NY, USA). The supernatant was loaded onto a Ni^2+ affinity column (HisTrap HP 5 mL, Cytiva Life Sciences, Freiburg im Breisgau, Germany), washed with buffer A and eluted in buffer A supplemented with 250 mM imidazole pH 8.0. […]

T2 sequence (P48348 whole entry, the tested form may be a part, canonical isoform): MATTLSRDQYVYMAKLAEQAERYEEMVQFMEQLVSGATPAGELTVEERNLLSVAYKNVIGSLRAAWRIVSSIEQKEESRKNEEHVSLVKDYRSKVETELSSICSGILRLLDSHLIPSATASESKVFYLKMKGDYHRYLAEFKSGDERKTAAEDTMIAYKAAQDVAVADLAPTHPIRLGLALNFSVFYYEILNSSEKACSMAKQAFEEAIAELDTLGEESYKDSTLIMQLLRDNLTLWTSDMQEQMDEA

For the compound `CC[C@H](C)[C@H](NC(=O)[C@@H](N)CCCNC(=N)N)C(=O)N[C@@H](CO)C(=O)N[C@@H](CC(N)=O)C(=O)N[C@@H](COP(=O)(O)O)C(=O)N[C@@H](C)C(=O)N1CCC[C@H]1C(=O)O` [pBZR1^169-175] (H-RISN[pS]AP-OH), the Kd in assay [1] (Fig. 2D and text, read-out: KD, dissociation constant (GCI)) was 0.52 µM. In addition, the kon in assay [1] (Fig. 2D, read-out: ka, association rate constant) was 1.67e+06 M⁻¹ s⁻¹. In addition, the koff in assay [1] (Fig. 2D, read-out: kd, dissociation rate constant) came out at 0.87 s⁻¹.
With `CC(C)C[C@H](NC(=O)[C@H](CCC(=O)O)NC(=O)CNC(=O)[C@@H](N)CCCNC(=N)N)C(=O)N[C@@H](Cc1ccccc1)C(=O)N[C@@H](COP(=O)(O)O)C(=O)N[C@@H](C)C(=O)N1CCC[C@H]1C(=O)O` [pBKI1^265-272] (H-RGELF[pS]AP-OH), the affinity in assay [2], expressed as Kd, was 15.9 ± 0.4 µM.
